Patent publication US20130273027A1, “MUTANT PROTEASES AND METHODS OF USE THEREOF” (Progenra, Inc., priority 2012, published 2013)

Columns and labels:
USP14 mutant BL1-USP21 = biological target: T1, USP14 mutant BL1-USP21 (Homo sapiens, UniProt P54578, DEL335-341/INS333SRGSI); experiment: Screening assay with USP14 mutant BL1-USP21, ubiquitin-rhodamine 110 cleavage; assay type: biochemical; settings: 63.75 nM mutant USP14 preincubated 30 minutes; Ub-Rh110; normalized to DMSO (0%) and 10 mM NEM (100%); FIG. 7
T1 construct: a full-length cDNA clone encoding full-length USP14 isoform a; made in house; host or cells: E. coli Rosetta 2 (DE3) pLysS
T1 sequence (P54578 with tags, fused parts or gaps INS333SRGSI/DEL335-341): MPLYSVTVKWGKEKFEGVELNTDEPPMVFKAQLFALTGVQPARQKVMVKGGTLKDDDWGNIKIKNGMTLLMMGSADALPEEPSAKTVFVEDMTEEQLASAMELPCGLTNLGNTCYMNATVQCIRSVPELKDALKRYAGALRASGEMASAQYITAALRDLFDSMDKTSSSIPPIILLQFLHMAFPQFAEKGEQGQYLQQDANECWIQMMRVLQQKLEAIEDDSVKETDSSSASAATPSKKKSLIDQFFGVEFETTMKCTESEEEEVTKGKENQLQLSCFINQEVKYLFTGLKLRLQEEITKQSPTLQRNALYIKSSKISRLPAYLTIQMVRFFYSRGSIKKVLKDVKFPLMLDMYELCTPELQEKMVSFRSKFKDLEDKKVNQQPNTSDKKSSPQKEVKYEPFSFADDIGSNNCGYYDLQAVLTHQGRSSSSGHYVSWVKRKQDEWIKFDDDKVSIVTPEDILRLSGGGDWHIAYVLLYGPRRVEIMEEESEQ
Method: Test compounds were diluted in DMSO to the appropriate concentration before dispensing 2 μl of each compound into a black walled 96 well plate. The compounds were preincubated with 80 μl of reaction buffer containing 63.75 nM mutant USP14 for 30 minutes before adding 20 μl of 510 nM ubiquitin-rhodamine 110 in reaction buffer. The plates were incubated at room temperature before reading on a fluorimeter equipped with excitation and emission filters of […] respectively and a 510 nm dichroic mirror within the linear range of the assay. […] FIG. 7 provides a graph of the results.

USP14 mutant BL2-DNHG = biological target: T2, USP14 mutant BL2-DNHG (Homo sapiens, UniProt P54578, DEL429-429/S430D/S431N/S432H/S433G); experiment: Screening assay with USP14 mutant BL2-DNHG, ubiquitin-rhodamine 110 cleavage; assay type: biochemical; settings: 1.275 μM mutant USP14 preincubated 30 minutes; Ub-Rh110; normalized to DMSO (0%) and 10 mM NEM (100%); FIG. 8
T2 construct: a full-length cDNA clone encoding full-length USP14 isoform a; 6xHis (N); yeast SUMO (S. cerevisiae Smt3) (N); made in house; host or cells: E. coli (Rosetta 2 (DE3) pLysS stated for the pE-SUMOpro-USP14 construct)
T2 sequence (P54578 with tags, fused parts or gaps DEL429-429/S430D/S431N/S432H/S433G): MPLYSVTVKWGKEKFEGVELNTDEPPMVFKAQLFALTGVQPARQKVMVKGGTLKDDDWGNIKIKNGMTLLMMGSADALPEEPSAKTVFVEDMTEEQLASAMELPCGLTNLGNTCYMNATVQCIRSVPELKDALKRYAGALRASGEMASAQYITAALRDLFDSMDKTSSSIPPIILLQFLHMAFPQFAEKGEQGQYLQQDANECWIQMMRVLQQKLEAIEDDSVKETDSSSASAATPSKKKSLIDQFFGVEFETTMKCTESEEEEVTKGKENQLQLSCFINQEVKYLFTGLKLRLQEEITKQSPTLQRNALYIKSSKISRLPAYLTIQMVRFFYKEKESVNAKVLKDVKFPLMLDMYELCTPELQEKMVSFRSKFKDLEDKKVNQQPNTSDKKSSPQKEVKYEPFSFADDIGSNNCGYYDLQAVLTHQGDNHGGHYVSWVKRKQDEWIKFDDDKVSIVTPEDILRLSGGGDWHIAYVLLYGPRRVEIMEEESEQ
Method: Another screening assay was performed with the USP14 mutant BL2-DNHG. Test compounds were diluted in DMSO to the appropriate concentration before dispensing 2 μl of each compound into a black walled 96 well plate. The compounds were preincubated with 80 μl of reaction buffer containing 1.275 μM mutant USP14 for 30 minutes before adding 20 μl of 510 nM ubiquitin-rhodamine 110 in reaction buffer. The plates were incubated at room temperature before reading on a fluorimeter equipped with excitation and emission filters of 485 and 528 nm respectively and a 510 nm dichroic mirror within the linear range of the assay.

For N#CSc1cc(SC#N)c(N)nc1N [PR-619], the “inhibition of USP14 mutant (BL1-USP21)” value (USP14 mutant BL1-USP21) was “inhibit” and the “inhibition of USP14 mutant (BL2-DNHG)” value (USP14 mutant BL2-DNHG) was “inhibit”.

In the case of CC(=O)c1cc([N+](=O)[O-])c(Sc2ccc(F)cc2F)s1 [P22077], the “inhibition of USP14 mutant (BL1-USP21)” value (USP14 mutant BL1-USP21) is reported as “do not inhibit” and the “inhibition of USP14 mutant (BL2-DNHG)” value (USP14 mutant BL2-DNHG) is reported as “do not inhibit”.
